The target in assay [1] is T1, CCK-A (Rattus norvegicus, UniProt P30551).
T1 construct: CCK-A receptors prepared from the cell membranes of rat pancreas; from tissue; host or cells: rat pancreas membranes (male rats, Japan Laboratory Animals)
T1 sequence (P30551 1-444): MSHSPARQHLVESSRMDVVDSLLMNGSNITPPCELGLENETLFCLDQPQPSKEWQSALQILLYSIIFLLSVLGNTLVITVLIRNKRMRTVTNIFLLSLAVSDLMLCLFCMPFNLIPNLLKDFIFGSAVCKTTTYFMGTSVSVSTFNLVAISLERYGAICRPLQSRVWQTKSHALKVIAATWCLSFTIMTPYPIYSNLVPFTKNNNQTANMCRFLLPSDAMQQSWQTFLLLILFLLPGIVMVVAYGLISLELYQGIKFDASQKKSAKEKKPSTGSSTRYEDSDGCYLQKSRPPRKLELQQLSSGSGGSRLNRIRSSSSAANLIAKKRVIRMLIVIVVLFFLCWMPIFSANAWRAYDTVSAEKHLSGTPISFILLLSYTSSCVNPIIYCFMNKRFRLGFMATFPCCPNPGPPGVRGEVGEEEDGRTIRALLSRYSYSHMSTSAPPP
Briefly: Peripheral receptor (CCK-A) binding experiment, [^3 H]-CCK-8 binding inhibition. Conditions: for CCK-B/CCK-A: ratio of IC50 values CCK-B/CCK-A (selectivity for CCK-A), 60 min. Here is the method:
(§1) Peripheral Receptor (CCK-A) and Central Receptor (CCK-B) Binding Experiment
(§2) The pancreas and cerebrum of male rats (Japan Laboratory Animals), which were sacrificed by decapitation and having body weights of 250-300 g, were extracted and immersed in cold Hepes buffer. After suspending these tissues using a Potter homogenizer, the suspension was centrifuged for 10 minutes at 48,000×g. The resulting residue was again suspended by addition of cold Hepes buffer and centrifuged for 10 minutes at 48,000×g. The resulting residue was transferred to cold incubation buffer.
(§3) A 1 ml aliquot of the homogenate was incubated for 60 minutes at 25° C. in the presence of 0.2 nM [^3 H]-CCK-8 and the test compound, in the presence of vehicle only (for measurement of 100% binding), or in the presence of 1 μM cold CCK-8 (for measurement of non-specific binding). Next, the reaction solution was promptly suction filtered using a Whatman glass GF/B filter immersed in Hepes buffer followed by washing the filter with cold Hepes buffer. Next, the glass filter was placed in Aquasol-2 followed by assay of radioactivity with a liquid scintillation counter.
(§4) The compound numbers shown in Table 3 indicate the target compounds according to the number of the embodiment.

In assay [2] the target is T2, CCK-B (Rattus norvegicus, UniProt P30553).
T2 construct: CCK-B receptors originating in the cell membrane of rat brain cells; from tissue; host or cells: rat cerebrum membranes (male rats, Japan Laboratory Animals)
T2 sequence (P30553 1-452): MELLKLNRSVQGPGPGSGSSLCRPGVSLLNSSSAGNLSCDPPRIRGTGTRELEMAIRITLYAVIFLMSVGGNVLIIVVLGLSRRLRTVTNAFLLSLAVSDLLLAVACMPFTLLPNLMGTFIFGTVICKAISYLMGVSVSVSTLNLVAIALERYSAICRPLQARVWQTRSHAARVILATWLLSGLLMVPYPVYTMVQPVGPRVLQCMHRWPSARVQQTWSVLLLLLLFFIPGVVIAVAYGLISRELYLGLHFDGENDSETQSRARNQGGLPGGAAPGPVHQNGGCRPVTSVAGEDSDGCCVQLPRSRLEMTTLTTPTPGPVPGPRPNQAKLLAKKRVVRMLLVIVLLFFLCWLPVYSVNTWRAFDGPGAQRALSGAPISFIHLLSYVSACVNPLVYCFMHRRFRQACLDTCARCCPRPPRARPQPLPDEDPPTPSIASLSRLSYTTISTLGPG
Briefly: Central receptor (CCK-B) binding experiment, [^3 H]-CCK-8 binding inhibition. As to conditions: rat cerebrum homogenate, 0.2 nM [^3 H]-CCK-8, 60 minutes at 25° C. Here is the method:
as §1, §2, §3, §4

Assay [3] relates to extracted guinea pig ileum. Briefly: Anti-CCK action in extracted guinea pig ileum (inhibition of CCK-8-induced contraction, Magnus tube). On the set-up: species or system guinea pig (Hartley strain, male). Conditions: Cavia porcellus; contraction by 1×10^-8 M CCK-8, test compound added 5 minutes before; extracted ileum, 37° C; read-out: Active IC50. Here is the method: Anti-cholecystokinin (CCK) Action in Extracted Guinea Pig Ileum After sacrificing a male guinea pig (Hartley strain) by striking and exsanguination, a piece of extracted ileum was suspended from a Magnus tube, while applying tension of 0.5 g, containing 30 ml of Tyrode's solution (NaCl 136.9 mM, KCl 2.68 mM, CaCl2 1.8 mM, MgCl2 1.05 mM, NaH2 PO4 0.42 mM, NaHCO3 11.9 mM and glucose 5.55 mM) and ventilated with mixed O2 gas containing 5% CO2 at 37° C. Changes in contraction were recorded on smoked paper for isotonicity via a bevel. The piece of ileum was allowed to stand undisturbed for 30 minutes and then contracted by addition 1×10^-8 M CCK-8. After washing, this was repeated several times. After the contraction by CCK-8 had stabilized, the test compound was added. Contraction resulting from addition of 1×10^-8 M CCK was then measured 5 minutes later. The contraction caused by CCK-8 and the contraction caused by CCK-8 in the presence of the test compound at varying concentrations were compared, and the resulting IC50 values (concentration of test substance at which contraction caused by CCK-8 is inhibited by 50%) are shown in Table 2. The compound numbers shown in Table 2 indicate the target compounds according to the numbers of the embodiments.

[4] abbreviates: rat pancreas homogenate, 0.2 nM [^3 H]-CCK-8, 60 minutes at 25° C, read-out: CCK-A IC50.
Where [5] appears, read: rat pancreas cell membranes, read-out: activity in binding experiment on CCK-A receptors prepared from the cell membranes of rat pancreas.

Like-named read-outs stand apart in the source and are kept apart here.

In the case of `CCCCCN(CCCOC)C(=O)C(CCC(=O)O)NC(=O)c1ccc(Cl)c(Cl)c1` (stereo not drawn) [CR1505, Loxiglumide, reference compound], the IC50 in assay [1] (setting [4]) stood at 1.5 µM; in assay [2], 24 µM; in assay [3], 3.3 µM. Further, the CCK-B/CCK-A in assay [1] was determined as 16.
With `O=C(N[C@@H](CSc1ncccc1C(=O)O)C(=O)N1CCN(C(c2ccccc2)c2ccccc2)CC1)c1cc2ccccc2[nH]1` [Compound 1-6, (R)-1-[3-(3-carboxypyridin-2-yl)thio-2-(indol-2-yl)carbonylamino]propionyl-4-diphenylmethylpiperazine], the IC50 in assay [1] (setting [5]) was determined as 0.0051 µM; in assay [1] (setting [4]) it was 0.0051 µM; in assay [2], 14 µM; in assay [3] it was 0.013 µM. In assay [1], the CCK-B/CCK-A was found to be 2745.
`O=C(N[C@@H](CSc1ncccc1C(=O)O)C(=O)N1CCC(C(c2ccccc2)c2ccccc2)CC1)c1cc2ccccc2[nH]1` [Compound 2-6, (R)-4-diphenylmethyl-1-[3-(3-carboxypyridin-2-yl)thio-2-(indol-2-yl)carbonylamino)propionylpiperidine]: the IC50 in assay [1] (setting [5]) is 0.0043 µM; in assay [1] (setting [4]), 0.0043 µM; in assay [2], 57 µM; in assay [3], 0.06 µM. Besides, the CCK-B/CCK-A in assay [1] came out at 13256.
For `COc1ccc2[nH]c(C(=O)N[C@@H](CSc3ncccc3C(=O)O)C(=O)N3CCN(C(c4ccccc4)c4ccccc4)CC3)cc2c1` [Compound 6-2, (R)-1-[3-(3-carboxypyridin-2-yl)thio-2-(5-methoxyindol-2-yl)carbonylamino]propionyl-4-diphenylmethylpiperazine], the IC50 turned out to be 0.043 µM in assay [1] (setting [4]), 18 µM in assay [2] and 0.052 µM in assay [3]. The CCK-B/CCK-A in assay [1] was 419.
For the compound `COc1ccc(C(c2ccc(OC)cc2)N2CCN(C(=O)[C@H](CSc3ncccc3C(=O)O)NC(=O)c3cc4ccccc4[nH]3)CC2)cc1` [Compound 7-4, (R)-4-bis(4-methoxyphenyl)methyl-1-[3-(3-carboxypyridin-2-yl)thio-2-(indol-2-yl)carbonylamino]propionylpiperazine], the results for the IC50 in assay [1] (setting [4]) and in assay [2] were 0.8 µM and 61 µM, respectively. For the same compound, the CCK-B/CCK-A in assay [1] is on record as 76.
For the compound `O=C(N[C@@H](CSc1ccccc1C(=O)O)C(=O)N1CCN(C(c2ccccc2)c2ccccc2)CC1)c1cc2ccccc2[nH]1` [Compound 9-3, (R)-1-[3-(2-carboxyphenyl)thio-2-(indol-2-yl)carbonylamino]propionyl-4-diphenylmethylpiperazine], the IC50 was found to be 0.21 µM in assay [1] (setting [4]) and 6 µM in assay [2]. Moreover, in assay [1], the CCK-B/CCK-A was 29.
For `O=C(N[C@@H](CSc1ncccc1C(=O)O)C(=O)N1CCN(C2c3ccccc3CCc3ccccc32)CC1)c1cc2ccccc2[nH]1` [Compound 19-5, (R)-1-[3-(3-carboxypyridin-2-yl)thio-2-(indol-2-yl)carbonylamino]propionyl-4-(10,11-dihydro-5H-dibenzo[a,d]cyclohepten-5-yl)piperazine], the IC50 amounted to 0.009 µM in assay [1] (setting [5]), 0.009 µM in assay [1] (setting [4]) and 64 µM in assay [2]. Also, the CCK-B/CCK-A in assay [1] came out at 7111.
Take `O=C(N[C@@H](CSc1ncccc1C(=O)O)C(=O)N1CCC(C(c2ccccc2)c2ccccc2)CC1)c1cc2cc(Cl)ccc2[nH]1` [Compound 20-2, (R)-1-[3-(3-carboxypyridin-2-yl)thio-2-(5-chloroindol-2-yl)carbonylamino]propionyl-4-diphenylmethylpiperidine]: the figures for the IC50 in assay [1] (setting [4]) and in assay [2] were 0.06 µM and greater than 1000 µM, respectively. The CCK-B/CCK-A in assay [1] is greater than 16667.
Consider `COc1ccc2[nH]c(C(=O)N[C@@H](CSc3ncccc3C(=O)O)C(=O)N3CCC(C(c4ccccc4)c4ccccc4)CC3)cc2c1` [Compound 21-2, (R)-1-[3-(3-carboxypyridin-2-yl)thio-2-(5-methoxyindol-2-yl)carbonylamino]propionyl-4-diphenylmethylpiperidine], for which the IC50 is 0.013 µM in assay [1] (setting [4]) and 1700 µM in assay [2]. Also, the CCK-B/CCK-A in assay [1] is listed as 130770.
Consider `O=C(N[C@@H](CCCn1nnc(C(=O)O)c1C(=O)O)C(=O)N1CCN(C(c2ccccc2)c2ccccc2)CC1)c1cc2ccccc2[nH]1` [Compound 23-6, (S)-1-[5-(4,5-dicarboxy-1,2,3-triazol-1-yl)-2-(indol-2-yl)carbonylamino]valeryl-4-diphenylmethylpiperazine], for which the IC50 is 0.14 µM in assay [1] (setting [4]) and 25 µM in assay [2]. Also, in assay [1], the CCK-B/CCK-A stood at 179.
For `O=C(N[C@@H](CCSc1ncccc1C(=O)O)C(=O)N1CCN(C(c2ccccc2)c2ccccc2)CC1)c1cc2ccccc2[nH]1` [Compound 25-7, (S)-1-[4-(3-carboxypyridin-2-yl)thio-2-(indol-2-yl)carbonylamino]butyryl-4-diphenylmethylpiperazine], the IC50 was 0.21 µM in assay [1] (setting [4]) and 12 µM in assay [2]. In addition, in assay [1], the CCK-B/CCK-A came to 57.
For `O=C(N[C@@H](CCCn1nncc1C(=O)O)C(=O)N1CCN(C(c2ccccc2)c2ccccc2)CC1)c1cc2ccccc2[nH]1` [Compound 28-3, (S)-1-[5-(5-carboxy-1,2,3-triazol-1-yl)-2-(indol-2-yl)carbonylamino]valeryl-4-diphenylmethylpiperazine], in that order: 0.07 µM, 3 µM and 43.
As to `O=C(O)c1cn(CCC[C@H](NC(=O)c2cc3ccccc3[nH]2)C(=O)N2CCN(C(c3ccccc3)c3ccccc3)CC2)nn1` [Compound 29-2, (S)-1-[5-(4-carboxy-1,2,3-triazol-1-yl)-2-(indol-2-yl)carboxyamino]valeryl-4-diphenylmethylpiperazine], the IC50 in assay [1] (setting [4]) came out at 1.5 µM; in assay [2], 26 µM. Besides, the CCK-B/CCK-A in assay [1] is 17.
As to `O=C(N[C@@H](Cn1nnc(C(=O)O)c1C(=O)O)C(=O)N1CCN(C(c2ccccc2)c2ccccc2)CC1)c1cc2ccccc2[nH]1` [Compound 31-3, (S)-1-[3-(4,5-dicarboxy-1,2,3-triazol-1-yl)-2-(indol-2-yl)carbonylamino]propionyl-4-diphenylmethylpiperazine], in assay [3], the IC50 was found to be 0.032 µM.
Take `O=C(N[C@@H](Cn1nncc1C(=O)O)C(=O)N1CCN(C(c2ccccc2)c2ccccc2)CC1)c1cc2ccccc2[nH]1` [Compound 32-2, (S)-4-diphenylmethyl-1-[3-(5-carboxy-1,2,3-triazol-1-yl)-2-(indol-2-yl)carbonylamino]propionylpiperazine]: the IC50 in assay [3] amounted to 0.036 µM.
